# Legend:
# [1] = Stability in mouse serum at 37°C; format: in vitro ADME
# [2] = Stability in serum-free RPMI 1640 media; format: in vitro ADME; details: serum-free RPMI 1640 medium
# [3] = Stability in PBS supplemented with 10% BSA; format: physicochemical; details: 37°C
# [4] = system: VSVG-pseudotyped HIV-1 pNL4-3 virus expressing luciferase (HIV-1 Luc); assay: microbe, parasite or virus in culture; format: cell-based; details: Human immunodeficiency virus 1, read-out: IC50, one round HIV-1 infection
# HIV-1 gag and env mRNAs = assay: HIV-1 gag and env mRNA expression in infected CEM-T cells; format: cell-based; details: CEM-T cells infected with HIV-1 Luc, 1 μM, 48 hours
# HIV-1 LTR = assay: Tat-induced HIV-1 LTR and proviral pNL4-3 luciferase transcription in 293T cells; format: cell-based; details: 2 μM (legend: 1 μM)
# HIV-1 LTR / NF-κB = assay: Basal HIV-1 LTR and NF-κB driven luciferase transcription in 293T cells; format: cell-based; details: 2 μM (legend: 1 μM)
# [5] = system: HIV-1 reverse transcription; assay: Quantitative PCR for viral DNA; format: cell-based
# HO-1 = HO-1 mRNA expression; format: cell-based; details: 1 μM, 18S RNA normalization
# CEM-T cells = assay: Cell cycle analysis of CEM-T cells; format: cell-based; details: 1 μM, 24 hours
# in vitro [6] = details: human
# in vitro [7] = details: IC50, viability of PBMCs, trypan blue, activated PBMCs
# [8] = CEM-T cells infected with HIV-1 Luc, compared with AZT
structure (smiles),measurement,setting,value
COc1cc(/C=C/C(=O)CC(=O)/C=C/c2ccc(O)c(OC)c2)ccc1O [curcumin],half-life at 50 μM,[1],10 h
same,half-life,[2],~1 h
same,stabilizing effect of BSA (stability in PBS with 10% BSA),[3],No stabilization and even a slight increase in degradation
same,IC50,[4],700 nM
same,expression of HIV-1 gag and env mRNAs,HIV-1 gag and env mRNAs,significantly reduced
same,effect on transcription from proviral pNL4-3 plasmid,HIV-1 LTR,Neither curcumin nor curcumin A at 2 μM concentrations had an effect
same,effect on Tat-induced HIV-1 transcription,HIV-1 LTR; HIV-1 LTR luciferase + Tat vector,Neither curcumin nor curcumin A at 2 μM concentrations had an effect
same,effect on NF-kB driven transcription,HIV-1 LTR / NF-κB,no effect
same,effect on basal HIV-1 transcription,HIV-1 LTR / NF-κB; HIV-1 LTR luciferase vector,no effect
same,effect on HIV-1 reverse transcription (overall),[5]; 2 μM,inhibited HIV-1 RT
same,effect on early LTR (early reverse transcription),[5]; [8],"inhibited early LTR similarly or better than the established HIV-1 inhibitor, AZT"
same,effect on late LTR formation (late reverse transcription),[5]; [8],no significant effect
same,HO-1 expression in PBMCs,HO-1,induced HO-1
same,HO-1 expression in CEM-T cells,HO-1; 24 hours,induced HO-1
same,effect on cell cycle progression,CEM-T cells,no effect
same,IC50,in vitro [6],1260 nM
same,IC50,in vitro [7],35000 nM

# From publication PMC4562762 (Drug Design, Development and Therapy, 2015)
